The results in this text go back to patent US20260028423A1, “PREDICTION OF AN INCREASE OF DPP3 IN A PATIENT WITH SEPTIC SHOCK” (4TEEN4 Pharmaceuticals GmbH, priority 2022, published 2026).

“Also recorded” adds a separate entry of the source.

Assay [1] deals with T1, Recombinant GST-tagged hDPP3 (Homo sapiens, UniProt Q9NY33).
T1 construct: purchased USBio (United States Biological, Salem, MA, USA)
T1 sequence (Q9NY33 1-737): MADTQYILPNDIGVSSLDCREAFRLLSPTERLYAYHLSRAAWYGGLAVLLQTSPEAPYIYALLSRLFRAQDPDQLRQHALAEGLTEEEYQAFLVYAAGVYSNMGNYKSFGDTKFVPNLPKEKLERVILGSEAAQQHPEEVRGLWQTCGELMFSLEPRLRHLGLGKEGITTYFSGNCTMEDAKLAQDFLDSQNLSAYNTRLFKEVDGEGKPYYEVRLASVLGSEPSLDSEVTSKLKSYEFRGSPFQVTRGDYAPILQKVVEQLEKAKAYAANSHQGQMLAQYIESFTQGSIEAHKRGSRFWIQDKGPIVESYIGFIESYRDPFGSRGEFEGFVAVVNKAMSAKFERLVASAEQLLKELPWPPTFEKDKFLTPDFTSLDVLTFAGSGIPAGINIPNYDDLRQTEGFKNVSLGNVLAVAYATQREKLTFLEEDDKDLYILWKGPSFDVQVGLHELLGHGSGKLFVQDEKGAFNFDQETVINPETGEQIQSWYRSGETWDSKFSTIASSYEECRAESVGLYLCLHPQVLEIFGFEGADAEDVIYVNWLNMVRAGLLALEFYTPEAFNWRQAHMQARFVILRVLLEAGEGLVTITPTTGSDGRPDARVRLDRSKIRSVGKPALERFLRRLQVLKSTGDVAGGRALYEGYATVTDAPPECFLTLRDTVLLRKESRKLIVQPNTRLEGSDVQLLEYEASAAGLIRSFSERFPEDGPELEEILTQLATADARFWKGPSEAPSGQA
Description: hDPP3 binding assay (labelled antibody, immobilized antigen, RLU). Particulars: immobilized GST-hDPP3 1 μg/well. The protocol:
To analyze the capability of DPP3/immunization peptide binding by the different antibodies and antibody clones a binding assay was performed:
Solid phase: Recombinant GST-tagged hDPP3 (SEQ ID NO. 36) or a DPP3 peptide (immunization peptide, SEQ ID NO. 37) was immobilized onto a high binding microtiter plate surface (96-Well polystyrene microplates, Greiner Bio-One international AG, Austria, 1 μg/well in coupling buffer [50 mM Tris, 100 mM NaCl, pH7,8], 1 h at RT). After blocking with 5% bovine serum albumin, the microplates were vacuum dried.
Labelling procedure (tracer): 100 μg (100 μl) of the different antiDPP3 antibodies (detection antibody, 1 mg/ml in PBS, pH 7.4) were mixed with 10 μl acridinium NHS-ester (1 mg/ml in acetonitrile, InVent GmbH, Germany; EP 0 353 971) and incubated for 30 min at room temperature. […] The final concentration was approx. 5-7*10^6 relative light units (RLU) of labelled compound (approx. 20 ng labelled antibody) per 200 μl. acridinium ester chemiluminescence was measured by using a Centro LB 960 luminometer (Berthold Technologies GmbH & Co. KG).
hDPP3 binding assay: the plates were filled with 200 μl of labelled and diluted detection antibody (tracer) and incubated for 2-4 h at 2-8° C. […] Well-bound chemiluminescence was measured by using the Centro LB 960 luminometer (Berthold Technologies GmbH & Co. KG).

Assay [2] concerns isoproterenol-induced heart failure mice. The assay is described as follows: Isoproterenol-induced heart failure in mice. It counts as in vivo, mouse. As to conditions: 10 mg/kg i.v.; within the first hour after administration. The procedure: Acute heart failure was induced in male mice at 3 months of age by two daily subcutaneous injections of 300 mg/kg of Isoproterenol, a non-selective β-adrenergic agonist (DL-Isoproterenol hydrochloride, Sigma Chemical Co) (ISO) for two days (Vergaro et al, 2016). The ISO dilution was performed in NaCl 0.9%. Isoproterenol-treated mice were randomly assigned to two groups (Table 10) and PBS or Procizumab (10 mg/kg) were injected intravenously after baseline echocardiography (Gao et al., 2011) and renal resistive index measurements (Lubas et al., 2014, Dewitte et al, 2012) were performed at day 3 (FIGS. 11 A and B). Cardiac function was assessed by echocardiography (Gao et al., 2011) and by the renal resistive index (Lubas et al., 2014, Dewitte et al, 2012) at 1 hour, 6 hours and 24 hours (FIGS. 11 A and B). The group of mice that was injected with vehicle (PBS) instead of isoproterenol was subjected to no further pharmacological treatment and served as the control group (Table 10).

Assay [3] relates to Male Wistar rats. The assay is described as follows: CLP model of septic shock, sepsis-induced heart failure rats. It counts as in vivo, rat. Particulars: vs CLP+PBS. The protocol: Male Wistar rats (2-3 months, 300 to 400 g, group size refers to table 9) from the Centre d'élevage Janvier (France) were allocated randomly to one of three groups. All the animals were anesthetized using ketamine hydrochloride (90 mg/kg) and xylazine (9 mg/kg) intraperitoneally (i.p.). For induction of polymicrobial sepsis, cecal ligation and puncture (CLP) was performed using Rittirsch's protocol with minor modification. A ventral midline incision (1.5 cm) was made to allow exteriorization of the cecum. The cecum is then ligated just below the ileocecal valve and punctured once with an 18-gauge needle. The abdominal cavity is then closed in two layers, followed by fluid resuscitation (3 ml/100 g body of weight of saline injected subcutaneously) and returning the animal to its cage. Sham animals were subjected to surgery, without getting their cecum punctured. CLP animals were randomized between placebo and therapeutic antibody.
The study flow is depicted in FIG. 8. After CLP or sham surgery the animals were allowed to rest for 20 hours with free access to water and food. […] As a safety measure, hemodynamics were monitored invasively and continuously from t=0 till 3 h. […]
Grey scale images were recorded at a depth of 2 cm. […] LVFS was calculated as LV end-diastolic diameter−LV end-systolic diameter/LV end-diastolic diameter and expressed in %. […] All parameters were measured manually. […]

On to “Clone 1967: anti-DPP3 monoclonal antibody, clone 1967 of SEQ ID No.: 37 (AK1967; Procizumab); humanized chains SEQ ID No. 47 and 48”, for which the “hDPP3 binding [RLU]” value in assay [1] came to 113.736 RLU. The “heart function (shortening fraction)” value in assay [2] is recorded as “improved; also recorded: restores heart function”. For the same substance, in assay [3], the mortality rate result is given as “drastically improves; also recorded: drastically reduces” and the shortening fraction entry is on record as “instant normalization; also recorded: drastically improves”.
